Test results published in patent US20230117324A1, “OXAZINE MONOACYLGLYCEROL LIPASE (MAGL) INHIBITORS” (Hoffmann-La Roche Inc., priority 2018, published 2023).

Biological target: T1, MAGL (recombinant wild-type) (Homo sapiens, UniProt Q99685)
T1 sequence (Q99685 1-303): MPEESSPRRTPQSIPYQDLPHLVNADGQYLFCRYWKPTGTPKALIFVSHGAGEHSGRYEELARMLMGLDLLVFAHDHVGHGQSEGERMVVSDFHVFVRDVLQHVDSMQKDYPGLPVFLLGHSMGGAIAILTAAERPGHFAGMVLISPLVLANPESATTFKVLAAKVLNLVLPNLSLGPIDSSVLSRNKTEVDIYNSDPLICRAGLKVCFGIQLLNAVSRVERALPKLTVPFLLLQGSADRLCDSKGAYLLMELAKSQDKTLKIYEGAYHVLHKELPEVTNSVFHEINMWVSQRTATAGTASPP
Assay: MAGL inhibition, 4-NPA assay (hydrolysis of 4-nitrophenylacetate, absorbance at 405 nm)
Type: biochemical
Conditions: 4-NPA assay (footnote [a]: values not marked [b])
Method: Compounds were profiled for MAGL inhibitory activity by measuring the enzymatic activity of MAGL by following the hydrolysis of 4-nitrophenylacetate resulting in 4-nitrophenol, which absorbs at 405-412 nm (G. G. Muccioli, G. Labar, D. M. Lambert, Chem. Bio. Chem. 2008, 9, 2704-2710). This assay is hereinafter abbreviated “4-NPA assay”.
The assay was carried out in 384 well assay plates (black with clear bottom, non-binding surface treated, Corning Ref. 3655) in a total volume of 40 μL. Compound dilutions were made in 100% DMSO (VWR Chemicals 23500.297) in a polypropylene plate in 3-fold dilution steps to give a final concentration range in the assay from 25 μM to 1.7 nM. 1 μL compound dilutions (100% DMSO) were added to 19 μL MAGL (recombinant wild-type) in assay buffer (50 mM TRIS (GIBCO, 15567-027), 1 mM EDTA (Fluka, 03690-100 mL)). The plate was shaked for 1 min at 2000 rpm (Variomag Teleshake) and then incubated for 15 min at RT. To start the reaction, 20 μL 4-Nitrophenlyacetate (Sigma N-8130) in assay buffer with 6% EtOH was added. The final concentrations in the assay were 1 nM MAGL and 300 μM 4-Nitrophenylacetate. After shaking (1 min, 2000 rpm) and 5 min incubation at RT, the absorbance at 405 nm was measured for a first time (Molecular Devices, SpectraMax Paradigm). A second measurement was then done after incubation for 80 min at RT. From the two measurements, the slope was calculated by subtracting the first from the second measurement.

| Structure (SMILES) | IC50 |
| --- | --- |
| O=C1CO[C@H]2CCN(C(=O)N3CCC(c4cn(CC5CC5)c5ccc(Cl)cc45)CC3)C[C@H]2N1 (racemic) [Example 2, rac-(4aR,8aS)-6-(4-(5-Chloro-1-(cyclopropylmethyl)-1H-indol-3-yl)piperidine-1-carbonyl)hexahydro-2H-pyrido[4,3-b][1,4]oxazin-3(4H)-one] | 2 nM |
| O=C1CO[C@H]2CCN(C(=O)N3CCC(C(c4ccc(F)cc4)c4ccc(F)cc4)CC3)C[C@H]2N1 (single isomer, unassigned) [Example 21, (+)-or (−)-cis-6-(4-(bis(4-Fluorophenyl)methyl)piperidine-1-carbonyl)hexahydro-2H-pyrido[4,3-b][1,4]oxazin-3(4H)-one] | 1 nM |
| O=C1CO[C@H]2CCN(C(=O)N3CCC(c4cn(CCO)c5ccc(Cl)cc45)CC3)C[C@H]2N1 (single isomer, unassigned) [Example 25, (+)- or (−)-cis-6-(4-(5-Chloro-1-(2-hydroxyethyl)-1H-indol-3-yl)piperidine-1-carbonyl)hexahydro-2H-pyrido[4,3-b][1,4]oxazin-3(4H)-one] | 2 nM |
| Cn1ncc2cc(C3CCN(C(=O)N4CC[C@@H]5OCC(=O)N[C@@H]5C4)CC3)ccc21 (racemic) [Example 16, rac-(4aR,8aS)-6-(4-(1-Methyl-1H-indazol-5-yl)piperidine-1-carbonyl)hexahydro-2H-pyrido[4,3-b][1,4]oxazin-3(4H)-one] | 1500 nM |
| CC(C)(C)[Si](C)(C)OCCn1cc(C2CCN(C(=O)N3CC[C@@H]4OCC(=O)N[C@@H]4C3)CC2)c2cc(Cl)ccc21 (single isomer, unassigned) [Example 24, (+)-or (−)-cis-6-(4-(1-(2-((tert-Butyldimethylsilyl)oxy)ethyl)-5-chloro-1H-indol-3-yl)piperidine-1-carbonyl)hexahydro-2H-pyrido[4,3-b][1,4]oxazin-3(4H)-one] | 0.7 nM |
| COCCC(c1ccc(F)cc1)C1CCN(C(=O)N2CC[C@@H]3OCC(=O)N[C@@H]3C2)CC1 (mixture of isomers) [Example 6, rac-(4aR,8aS)-6-(4-(1-(4-Fluorophenyl)-3-methoxypropyl)piperidine-1-carbonyl)hexahydro-2H-pyrido[4,3-b][1,4]oxazin-3(4H)-one] | 15 nM |
| O=C1CO[C@H]2CCN(C(=O)N3CCN(C(c4ccc(F)cc4)c4ccc(F)cc4)CC3)C[C@H]2N1 (racemic) [Example 12, rac-(4aR,8aS)-6-[4-[bis(4-Fluorophenyl)methyl]piperazine-1-carbonyl]-4,4a,5,7,8,8a-hexahydropyrido[4,3-b][1,4]oxazin-3-one] | 12 nM |
| O=C1CO[C@H]2CCN(C(=O)N3CCC(c4cn(C5COC5)c5ccc(Cl)cc45)CC3)C[C@H]2N1 (relative stereo) [Example 22, (+)- or (−)-cis-6-(4-(5-Chloro-1-(oxetan-3-yl)-1H-indol-3-yl)piperidine-1-carbonyl)hexahydro-2H-pyrido[4,3-b][1,4]oxazin-3(4H)-one] | 2 nM |
| O=C1CO[C@H]2CCN(C(=O)N3CCC(C4c5ccccc5-c5ccccc54)CC3)C[C@H]2N1 (racemic) [Example 4, rac-(4aR,8aS)-6-(4-(9H-Fluoren-9-yl)piperidine-1-carbonyl)hexahydro-2H-pyrido[4,3-b][1,4]oxazin-3(4H)-one] | 5 nM |
| O=C1CO[C@H]2CCN(C(=O)N3CCC(C(c4ccccc4)c4ccccc4)CC3)C[C@H]2N1 (racemic) [Example 1, rac-(4aR,8aS)-6-(4-Benzhydrylpiperidine-1-carbonyl)-4,4a,5,7,8,8a-hexahydropyrido[4,3-b][1,4]oxazin-3-one] | 3 nM |
| O=C1CO[C@H]2CCN(C(=O)N3CCC(c4noc5ccc(F)cc45)CC3)C[C@H]2N1 (racemic) [Example 9, rac-(4aR,8aS)-6-(4-(5-Fluorobenzo[d]isoxazol-3-yl)piperidine-1-carbonyl)hexahydro-2H-pyrido[4,3-b][1,4]oxazin-3(4H)-one] | 644 nM |
| O=C1CO[C@H]2CCN(C(=O)N3CCC(c4c[nH]c5cc(F)ccc45)CC3)C[C@H]2N1 (relative stereo) [Example 5, (+)-cis-6-[4-(6-Fluoro-1H-indol-3-yl)piperidine-1-carbonyl]-4,4a,5,7,8,8a-hexahydropyrido[4,3-b][1,4]oxazin-3-one] | 14 nM |
| Cn1cc(C2CCN(C(=O)N3CC[C@@H]4OCC(=O)N[C@@H]4C3)CC2)c2cc(Cl)ccc21 (racemic) [Example 3, rac-(4aR,8aS)-6-(4-(5-Chloro-1-methyl-1H-indol-3-yl)piperidine-1-carbonyl)hexahydro-2H-pyrido[4,3-b][1,4]oxazin-3(4H)-one] | 3 nM |

Other lines, results leading:

| IC50 | Structure (SMILES) |
| --- | --- |
| 21 nM | O=C1CO[C@H]2CCN(C(=O)N3CCC(C(F)(F)c4ccc(F)cc4Cl)CC3)C[C@H]2N1 (single isomer, unassigned) [Example 39, (+) or (−)-cis-6-(4-((2-Chloro-4-fluorophenyl)difluoromethyl)piperidine-1-carbonyl)hexahydro-2H-pyrido[4,3-b][1,4]oxazin-3(4H)-one] |
| 485 nM | CC(F)(F)c1ccc(C2CCN(C(=O)N3CC[C@@H]4OCC(=O)N[C@@H]4C3)CC2)nc1 (single isomer, unassigned) [Example 41, (+) or (−)-cis-6-(4-(5-(1,1-Difluoroethyl)pyridin-2-yl)piperidine-1-carbonyl)hexahydro-2H-pyrido[4,3-b][1,4]oxazin-3(4H)-one] |
| 2400 nM | COc1cncc(C2CCN(C(=O)N3CC[C@@H]4OCC(=O)N[C@@H]4C3)CC2)c1 (single isomer, unassigned) [Example 35, (+) or (−)-cis-6-(4-(5-Methoxypyridin-3-yl)piperidine-1-carbonyl)hexahydro-2H-pyrido[4,3-b][1,4]oxazin-3(4H)-one] |
| 17 nM | O=C1CO[C@H]2CCN(C(=O)N3CCC(C(CCO)c4ccc(F)cc4)CC3)C[C@H]2N1 (single isomer, unassigned; (+)) [Example 31, (+)-(4aR,8aS)-6-(4-((R or S)-1-(4-Fluorophenyl)-3-hydroxypropyl)piperidine-1-carbonyl)hexahydro-2H-pyrido[4,3-b][1,4]oxazin-3(4H)-one] |
| 33 nM | O=C1CO[C@H]2CCN(C(=O)N3CCC(C(CCO)c4ccc(F)cc4)CC3)C[C@H]2N1 (mixture of isomers) [Example 26, rac-cis-6-(4-(1-(4-Fluorophenyl)-3-hydroxypropyl)piperidine-1-carbonyl)hexahydro-2H-pyrido[4,3-b][1,4]oxazin-3(4H)-one] |
| 103 nM | Cn1nc(C2CCN(C(=O)N3CC[C@@H]4OCC(=O)N[C@@H]4C3)CC2)c2ccc(Cl)cc21 (single isomer, unassigned) [Example 42, (+) or (−)-cis-6-(4-(6-Chloro-1-methyl-1H-indazol-3-yl)piperidine-1-carbonyl)hexahydro-2H-pyrido[4,3-b][1,4]oxazin-3(4H)-one] |
| 25 nM | O=C1CO[C@H]2CCN(C(=O)N3CCC(C(F)(F)c4ccc(C(F)(F)F)cc4)CC3)C[C@H]2N1 [Example 30, (4aR,8aS)-6-(4-(Difluoro(4-(trifluoromethyl)phenyl)methyl)piperidine-1-carbonyl)hexahydro-2H-pyrido[4,3-b][1,4]oxazin-3(4H)-one] |
